Source: ChEMBL document CHEMBL4428068, “Allosteric Modulation of Phosphatase Activity May Redefine Therapeutic Value” (J Med Chem, 2016)

Target: T1, Tyrosine-protein phosphatase non-receptor type 11 (Homo sapiens, UniProt Q06124)
T1 sequence (Q06124 whole entry): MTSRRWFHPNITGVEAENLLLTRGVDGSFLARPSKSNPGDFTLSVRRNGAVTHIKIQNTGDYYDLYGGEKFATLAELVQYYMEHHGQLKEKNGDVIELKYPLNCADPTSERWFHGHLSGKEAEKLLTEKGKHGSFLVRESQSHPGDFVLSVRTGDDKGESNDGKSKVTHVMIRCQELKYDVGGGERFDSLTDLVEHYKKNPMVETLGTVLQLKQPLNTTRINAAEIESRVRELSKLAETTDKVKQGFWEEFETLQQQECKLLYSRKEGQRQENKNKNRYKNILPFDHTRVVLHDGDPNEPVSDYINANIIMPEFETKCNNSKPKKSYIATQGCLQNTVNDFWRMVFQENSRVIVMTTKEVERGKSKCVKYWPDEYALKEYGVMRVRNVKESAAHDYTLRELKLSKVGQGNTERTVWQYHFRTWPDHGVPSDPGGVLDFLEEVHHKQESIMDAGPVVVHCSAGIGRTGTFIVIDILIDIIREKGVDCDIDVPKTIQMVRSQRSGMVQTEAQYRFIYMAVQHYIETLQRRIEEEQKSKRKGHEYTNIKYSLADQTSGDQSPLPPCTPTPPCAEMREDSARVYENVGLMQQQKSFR
Assay: Negative allosteric modulator activity at SHP2 (unknown origin)

IC50: 12 µM
Compound: C[C@@H]1CN(c2ncc(-c3cccc(Cl)c3Cl)c(N)n2)C[C@H](C)N1
